Here are results for eight molecules from patent publication US20080267909A1, “PHAGOCYTE ENHANCEMENT THERAPY FOR ATHEROSCLEROSIS” (THE TRUSTEES OF COLUMBIA UNIVERSITY IN THE CITY OF NEW YORK, priority 2005, published 2008).

In assay [1] the test system is FC-induced apoptotic macrophages. Particulars: phagocytes pre-treated with 100 μM for 15 minutes; compared to untreated phagocytes; FIG. 2.
Procedure: Briefly, mouse peritoneal macrophages were labeled with the fluorophore calcein-AM (green) and then FC-loaded to induced apoptosis. Some of the macrophages were not FC-loaded, thus serving as a non-apoptotic control. The macrophages were added to a monolayer of octadecylrhodamine-labeled (red) macrophage phagocytes for 30 minutes at 37° C. The monolayers were then thoroughly rinsed with phosphate buffered saline (PBS). […] The percentage of rhodamine-labeled phagocytes with green inclusion was determined and quantified. Inclusion of green indicated the uptake of apoptotic cells into the phagocytes.
Assay [2] has as its system ingesting phagocytes (IPs) and non-IPs. The assay is described as follows: FC-induced apoptosis (annexin V) in IPs and non-IPs during 20 hour post-ingestion FC-loading. Format: cell-based, mouse. As to conditions: 10 μM inhibitor; for apoptosis in IPs: 20 hours in FC-loading medium, FIG. 10A. The method, then: FIG. 10A is a bar graph depicting the results of experiments in which the protocol described in FIG. 9C was used and the percent apoptosis was determined in non-IPs (cross-hatched bars) and IPs (black bars) that were incubated for 20 hours in FC-loading medium either in the absence or presence of 10 μM of the IKK inhibitor PS1145, 10 μM of the PI-3 kinase/Akt inhibitor […], or both compounds.
(§1) FC-AMs were removed from the culture dish and cultured for 30 minutes with a monolayer of fresh macrophages (“phagocytes”) at an approximate ratio of 1:5 (FC-AMs:phagocytes). In certain experiments, the FC-AMs were labeled with Alexa Fluor 488 annexin V or Calcium Green™-AM for 20 minutes prior to addition to the phagocytes in order to mark those phagocytes that had ingested the FC-AMs (“ingesting phagocytes,” or “IPs”). The non-ingested apoptotic cells were then removed by thorough rinsing as described in Li et al. (2006, J. Biol. Chem. 281:6707-6717), and the phagocytes were incubated in fresh medium for the indicated times. In some experiments, the phagocytes were incubated during the post-ingestion incubation in medium containing acetyl-LDL and 58035 to maintain FC levels in the (ingesting phagocytes) IPs, inhibitors of Akt or NFκB, or various combinations of these reagents. To assay apoptosis in the phagocytes, the cells were stained with Alexa Fluor 594 annexin V and viewed by fluorescence microscopy. For quantification, 4-6 representative fields of cells at 40× magnification were counted to determine the number of apoptotic phagocytes and total phagocytes for each condition.
Because NFκB is known to signal survival responses in cells, the functional significance of NFκB signaling in the survival response of IPs against FC-induced apoptosis was investigated. […] The NFkB and Akt survival pathways might represent independent, complementary survival pathways or they may signal through a common final mediator. […]

For assay [3] the test system is unchanged. Nature of the assay: UV-induced apoptosis (annexin V) in IPs and non-IPs. Particulars: 10 μM inhibitor, 8 hour incubation after UV irradiation, FIG. 12. Format: cell-based, mouse.
Assay [4] deals with UV-induced apoptotic J774 macrophages. The assay is described as follows: Phagocytosis of UV-induced apoptotic J774 macrophages by J744 murine macrophages (Example 4). The format is cell-based. Particulars: 10 μM, one hour pre-treatment, 45 minutes; vs untreated; FIG. 5. The method, then:
In a similar experiment, J744 murine macrophages (phagocytes) were pretreated in the presence of absence of the ROCK inhibitor fasudil (10 μM) for one hour. The phagocytes were then incubated for 45 minutes, with or without fasudil, with fluorescently labeled UV-induced apoptotic J774 macrophages (“UV-Ams”). The percentage of phagocytes that had engulfed at least one UV-AM was quantified using fluorescent microscopy. […] Such compounds are useful for treating cardiovascular disease.

The subject of assay [5] is ingesting phagocytes (IPs). Nature of the assay: Apoptosis in phagocytes that had ingested FC-AMs, incubated with SRA ligand. Format: cell-based, mouse. The method, then:
as §1
FC-induced apoptosis in macrophages requires UPR activation in combination with engagement of the type A scavenger receptor (SRA), both of which occur with acetyl-LDL-induced FC loading. […]

Assay [6] relates to cholesterol trafficking to ACAT in the ER. The assay is described as follows: Whole-cell cholesterol esterification assay in phagocytes after ingestion of FC-AMs. As to conditions: 1 μM during the post-ingestion period; FIG. 7. The format is cell-based, mouse. Here is the method: FIG. 7 is a bar graph depicting the results of experiments in which macrophages were incubated for 18 hours in medium alone (i.e., no exposure to FC-AMs) or in the same medium for the indicated time points after ingestion of FC-AMs. All of the incubations contained [^14C]oleate, and some of the phagocytes were incubated with 1 μM U18666A during the post-ingestion period to block cholesterol trafficking to the endoplasmic reticulum (ER). To make sure that the phagocytes would not be exposed to residual ACAT inhibitor in the FC-AMs, the FC-AMs for this experiment were generated by incubating macrophages from Acat1−/− mice with AcLDL without ACAT inhibitor. After the indicated time points, the macrophages were assayed for cholesteryl [^14C]oleate formation as an indicator of cholesterol trafficking to ACAT in the ER.
After a 30 minute incubation of phagocytes with FC-AMs that were made using acetyl-LDL and macrophages from Acat1^−/− mice (i.e., no ACAT inhibitor), non-ingested apoptotic cells were removed, and the phagocytes were incubated in fresh medium containing [^14C]oleate for specific times. […] Cholesterol esterification activity was then determined in lipid extracts of the cells by measuring the cellular content of cholesteryl [^14C]oleate by thin-layer chromatography (Tabas et al., 1987, J. Clin. Invest. 79:418-426). […]

Assay [7] deals with apoptotic J774 cells. The assay is described as follows: Phagocytic uptake of apoptotic J774 cells by peritoneal macrophages, ROCK inhibitor (Example 4). The format is cell-based. As to conditions: 10 μM, one hour pre-treatment, 45 minutes with apoptotic cells; vs untreated; FIG. 4. The method, then:
As discussed in Example 6, statins can inhibit RhoA activation. RhoA activation inhibits phagocytic clearance of apoptotic cells and so inhibitors of RhoA or the downstream RhoA effector, Rho kinase (ROCK) can enhance or at least contribute to limit or decrease Rho-mediated inhibition of phagocytic clearance. […] In these experiments, peritoneal macrophages (phagocytes) were treated for one hour in the presence or absence of 10 μM Y-27632. Calcein-AM-labeled (green) apoptotic J774 cells (UV-irradiated) were then added to the phagocytes at a ratio of 1:1, in the absence or presence of Y-27632. After 45 minutes, non-internalized cells were removed by rinsing, and the percentage of phagocytes that had internalized labeled apoptotic macrophages was quantified by fluorescence microscopy. Results are depicted in FIG. 4 as the as the mean ±SEM; n=3 fields of cells, each containing approximately 150 cells.

For assay [8], the system named is UV-irradiated apoptotic J774 cells. Nature of the assay: Efferocytosis of UV-irradiated apoptotic J774 cells by cytokine pre-treated primary efferocytes. Format: cell-based. As to conditions: pre-treated about 24 hours, challenged 30 minutes; FIG. 17. Here is the method:
FIG. 17. Primary efferocytes were pre-treated with the indicated cytokine for about 24 hours and then challenged for 30 minutes with UV-irradiated apoptotic J774 cells and the percent efferocytosis was determined.
Thus, drugs that mimic this effect can promote the uptake of apoptotic macrophages in advanced atherosclerotic lesions (see in allergic, cellular and humoral responses to parasitic and extracellular pathogens (see Nat Rev Immunol. 2003 January;3(1):23-35).

Take `CCN(CC)CC.Nc1ncnc2c1ncn2C1OC2COP(O)(=S)OC2C1O` (single isomer, unassigned) [PKA inhibitor, adenosine 3′,5′-cyclic monophosphorothioate, Rp-isomer, triethylammonium salt]: the “percentage of rhodamine-labeled phagocytes with green inclusion (uptake of FC-induced apoptotic macrophages)” value in assay [1] was “internalized more FC-induced apoptotic macrophages than untreated phagocytes”.

As to `O=C(Nc1cc(Cl)cc2c1[nH]c1cnccc12)c1cccnc1` [PS1145], in assay [2] (20 hours FC-loading, vs no inhibitor), the “FC-induced apoptosis in IPs (in words)” value was “very similar effect”. Moreover, the “apoptosis in IPs” value in assay [2] is on record as 32.0±3.4%. Further, the “UV-induced apoptosis in non-IPs / compared to non-IPs” value in assay [3] is listed as “no effect”. In addition, the “UV-induced apoptosis in IPs” value in assay [3] (vs no-inhibitor control) is “only a small increase”.

Consider `O=S(=O)(c1cccc2cnccc12)N1CCCNCC1` [fasudil], for which, in assay [4], the “percentage phagocytosis (phagocytes that had engulfed at least one UV-AM)” value is given as “increased”.

Regarding fucoidan, the “induction of apoptosis in the IPs” value in assay [5] is recorded as “did not induce apoptosis”.

In the case of `CCN(CC)CCO[C@H]1CC[C@@]2(C)C(=CC[C@@H]3[C@@H]2CC[C@]2(C)C(=O)CC[C@@H]32)C1` [U18666A], the “FC-AM-induced increase in cholesterol esterification (cholesteryl [14C]oleate formation)” value in assay [6] is reported as “completely blocked”.

Take `C[C@@H](N)[C@H]1CC[C@H](C(=O)Nc2ccncc2)CC1` [Y-27632, trans-4-[(1R)-1-aminoethyl]-N-pyridin-4-ylcyclohexanecarboxamide]: the “percentage of phagocytes ingesting apoptotic macrophages” value in assay [7] is given as “increase”.

`O=c1cc(N2CCOCC2)oc2c(-c3ccccc3)cccc12` [LY294002]: the “apoptosis in IPs” value in assay [2] came out at 32.0±5.7%.

B1: interleukin-4: cytokine that promotes alternative activation of macrophages (protein, UniProt P05112 25-153, looked up)
Interleukin-4: HKCDITLQEIIKTLNSLTEQKTLCTELTVTDIFAASKNTTEKETFCRAATVLRQFYSHHEKDTRCLGATAQQFHRHKQLIRFLKRLDRNLWGLAGLNSCPVKEANQSTLENFLERLKTIMREKYSKCSS
With B1, the “percent efferocytosis (ability of phagocytes to engulf apoptotic macrophages)” value in assay [8] is listed as “promotes the ability of these phagocytes to engulf apoptotic macrophages”.
